Assay results taken from patent publication US10758623B2, “Pharmaceutically active agent complexes, polymer complexes, and compositions and methods involving the same” (Durect Corporation, priority 2013, dated 2020).
Read-outs that look alike come from different tables or passages of the source.

Legend:
Type in all cases: physicochemical
[1] = Stability following exposure to gamma radiation, RPLC purity (Example 30)
Description: The APIs were mixed with the complexable polymers at a ratio of 1:1, 1:4 or 1:10. The instantaneous precipitation was separated from reaction media (ammonium bicarbonate in water) and dried via lyophilization. The dried powder or the dried powder suspended in Benzyl Benzoate were loaded either in glass vial or plastic syringes (Intervene) and packed in aluminum pouches. These samples were exposed to gamma radiation (12.5 kGy-17.5 kGy) for more than 8 hrs at room temperature with radiation indicator sticker (Sterigenics, Corona, Calif.). These gamma irradiated samples were then analyzed for purity using reverse phase liquid chromatography (RPLC) in reference to non-gamma irradiated samples.

[2] = In vitro dissolution of decitabine and azacytidine from amine functionalized copolymer complex (Example 12); conditions: complex with amine functionalized copolymer (Example 2H); PBS pH 7.4, 37° C.; FIG. 7
Description: 1.00 g of decitabine or azacytidine powder was placed in a 150 mL wide-mouth glass jar. 100 mL of 50 mM NH4HCO3 solution were added, and the mixture was stirred at 400 rpm for 30 min at room temperature (until it became a visibly clear solution).
100 mL of a 10 mg/mL solution of functionalized complexation polymer were then prepared by stirring 1.00 g of polymer in 100 mL of MilliQ water at 400 rpm (until it became a clear solution).
(§1) The decitabine or azacytidine solution was combined with the complexation polymer solution at specific ratios as set forth below and monitored for precipitation. The combined materials were stirred for 30 min and then centrifuged in 50 mL Falcon™ tubes. The supernatant solution was removed for HPLC analysis to determine the quantity of free pharmaceutically active agent (not complexed). The resultant precipitate was resuspended in 50-100 mL of 50 mM NH4HCO3 solution and lyophilized according to the method described in Example 3.
Lyophilized complex powder was suspended in 1 mL ammonium bicarbonate (50 mM).
For dissolution or in vitro release testing, PBS (Phosphate buffered saline) pH˜7.4 was used as the medium, and the complexed powder was dispersed into the dissolution medium. […] The amount of decitabine or azacytidine in solution at each time point was determined by HPLC.

[3] = Attempted complexation of risperidone with carboxylate-functionalized 50:50 copolymer (Example 10); conditions: reaction mixture at pH ~5
Description: Dissolution experiments were conducted as set forth below to determine the in vitro release from a mixture of risperidone and a carboxylate-functionalized 50:50 copolymer prepared as described in Example 2E. […] This observation is mainly due to the limited solubilities of risperidone and the copolymer in the reaction mixture at pH˜5.
1.00 g of a risperidone powder was placed in a 150 mL wide-mouth glass jar. 100 mL of 50 mM NH4COOCH3 solution were added, and the mixture was stirred at 400 rpm for 30 min at room temperature (until it became a visibly clear solution).
100 mL of a 10 mg/mL solution of functionalized polymer were then prepared by stirring 1.00 g of polymer in 100 mL of MilliQ water at 400 rpm (until it became a clear solution).
as §1, with “pharmaceutically active agent” for “decitabine or azacytidine”, “the” for “the complexation”, “precipitated).” for “complexed).”, “NH4COOCH3” for “NH4HCO3”

CCCCCCCCCCCCCCCC(=O)N[C@@H](CCC(=O)NCCCC[C@H](NC(=O)[C@H](C)NC(=O)[C@H](C)NC(=O)[C@H](CCC(N)=O)NC(=O)CNC(=O)[C@H](CCC(=O)O)NC(=O)[C@H](CC(C)C)NC(=O)[C@H](Cc1ccc(O)cc1)NC(=O)[C@H](CO)NC(=O)[C@H](CO)NC(=O)[C@@H](NC(=O)[C@H](CC(=O)O)NC(=O)[C@H](CO)NC(=O)[C@@H](NC(=O)[C@H](Cc1ccccc1)NC(=O)[C@@H](NC(=O)CNC(=O)[C@H](CCC(=O)O)NC(=O)[C@H](C)NC(=O)[C@@H](N)Cc1cnc[nH]1)[C@@H](C)O)[C@@H](C)O)C(C)C)C(=O)N[C@@H](CCC(=O)O)C(=O)N[C@@H](Cc1ccccc1)C(=O)N[C@H](C(=O)N[C@@H](C)C(=O)N[C@@H](Cc1c[nH]c2ccccc12)C(=O)N[C@@H](CC(C)C)C(=O)N[C@H](C(=O)N[C@@H](CCCNC(=N)N)C(=O)NCC(=O)N[C@@H](CCCNC(=N)N)C(=O)NCC(=O)O)C(C)C)[C@@H](C)CC)C(=O)O [Liraglutide]
stability after 15 kGy gamma irradiation, non-complexed API ([1]; RPLC, relative to the complexed APIs, with a corresponding reduction in potency): degraded faster

Nc1ncn([C@@H]2O[C@H](CO)[C@@H](O)[C@H]2O)c(=O)n1 [azacytidine]
stability under the tested dissolution conditions [2]: significantly degraded

Cc1nc2n(c(=O)c1CCN1CCC(c3noc4cc(F)ccc34)CC1)CCCC2 [risperidone]
complexation outcome with carboxylate-functionalized 50:50 copolymer (Example 2E) [3]: precipitated separately

HGH: Human Growth Hormone (Biosolutions)
stability after 15 kGy gamma irradiation, non-complexed API [1]: degraded faster
